In publication PMC3534098 (PLoS ONE, 2012):

Each compound was assayed on M. bovis BCG resistant mutants.
Assay type: cell-based, Mycobacterium bovis BCG

SMILES | viability of M. bovis BCG mutants raised against other IP family members
Cc1ccc2nc(C)c(C(=O)NCc3cccs3)n2c1 [IP 1] | viable
Cc1ccc2nc(C)c(C(=O)NCc3ccc(C(F)(F)F)cc3)n2c1 [IP 3, 2,6-Dimethyl-N-(4-(trifluoromethyl)benzyl)imidazo[1,2-a]pyridine-3-carboxamide] | viable
Cc1ccc2nc(C)c(C(=O)NCc3ccc(Cl)nc3)n2c1 [IP 4, N-((6-Chloropyridin-3-yl)methyl)-2,6-dimethylimidazo[1,2-a]pyridine-3-carboxamide] | viable
